Experiments:
p38α = target: T1, p38α (Homo sapiens, UniProt Q16539); assay: p38 MAP Kinase assay, ATF2 phosphorylation (ELISA); type: biochemical; conditions: 40 μM ATP
T1 construct: p38 MAP Kinases are recombinant human full-length proteins with an amino-terminal GST fusion; GST (N); purchased Upstate (Charlottesville, Va.); host or cells: E. coli
Method in brief: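 Recombinant full-length GST-tagged human p38α (6 ng) pre-incubated 15 min at room temperature with compound, then reacted 30 min at 37° C with 40 μM ATP and 1.25 μM GST-ATF2 (aa 19-96) in HEPES pH 7.5/MgCl2 buffer. EDTA stop; ATF2 Thr69 phosphorylation measured by anti-phospho-ATF2 ELISA at 450 nm.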

[1] = tested on: TNFα release from THP-1 cells; assay: TNFα release from LPS-stimulated THP-1 cells; type: cell-based; conditions: Homo sapiens, THP-1, 18 h, LPS 10 μg/ml, 18 hours; read-out: TNFα (THP-1) IC50
Method in brief: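 THP-1 cells (10^6 cells/ml on resuspension) preincubated with compound 30 min at 37°C, 5% CO2, final DMSO ≤0.5%, then stimulated with 10 μg/ml LPS for 18 h (TNFα). Supernatants collected for TNFα analysis.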

T1 sequence (Q16539 whole entry, the tested form may be a part): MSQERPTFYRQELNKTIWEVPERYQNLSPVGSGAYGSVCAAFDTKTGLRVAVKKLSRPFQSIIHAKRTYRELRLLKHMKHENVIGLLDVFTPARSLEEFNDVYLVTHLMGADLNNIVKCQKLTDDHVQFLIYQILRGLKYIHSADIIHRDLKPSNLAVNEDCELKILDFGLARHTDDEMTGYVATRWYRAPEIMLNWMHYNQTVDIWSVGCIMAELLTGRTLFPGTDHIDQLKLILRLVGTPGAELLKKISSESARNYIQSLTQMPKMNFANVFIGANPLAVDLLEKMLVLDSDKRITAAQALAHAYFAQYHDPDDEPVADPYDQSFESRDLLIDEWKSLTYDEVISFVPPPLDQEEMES

## CS(=O)(=O)c1nccc(-c2c(-c3ccc(F)cc3)nc3sccn23)n1 [CXL, 6-(4-fluorophenyl)-5-(2-methanesulfonyl-pyrimidin-4-yl)-imidazo[2,1-b]thiazole]
p38α
  IC50: 966 nM
[1]
  IC50: 4860 nM
other
  melting point: 197 to 198 °C

## CSc1nccc(-c2c(-c3ccc(F)cc3)nc3occn23)n1 [X, 6-(4-fluorophenyl)-5-[2-(methylsulfanyl)pyrimidin-4-yl]imidazo[2,1-b][1,3]oxazole]
p38α
  IC50: 1130 nM
other
  melting point: 144 to 145 °C

## CC(C)(CO)CNc1nccc(-c2c(-c3ccc(F)cc3)nc3occn23)n1 [XXXIX, 3-({4-[6-(4-Fluorophenyl)imidazo[2,1-b][1,3]oxazol-5-yl]pyrimidin-2-yl}amino)-2,2-dimethylpropan-1-ol]
p38α
  IC50: 5.25 nM
[1]
  IC50: 5.88 nM
other
  melting point: 149 °C

— patent publication US20070270418A1, “Inhibitors of P38 and Methods of Using the Same” (priority 2003, published 2007)
